Experiments:
N1E-115 cells [1] = assay: Immunofluorescence, mitotic spindle morphology; assay type: cell-based, mouse; details: 2.5 hr, control 30%
From the text: Using IF, we next examined the mitotic phenotypes induced by CW069 in N1E-115 and NHDF cells, with a strong focus on centrosome numbers and mitotic spindle morphology. Antibodies against α-tubulin, CDK5RAP2, and DAPI were employed to visualize MTs, centrosomes, and DNA, respectively. We hypothesized that small-molecule inhibition of HSET would give rise to mitotic spindle defects similar to those reported after HSET knockdown by siRNA transfection ([Kwon et al., 2008]), and this was indeed the case. […] After treatment, the N1E-115 cells formed multipolar spindles due to a lack of centrosome clustering, consistent with HSET inhibition in cells with supernumerary centrosomes (Figure 4C).
[…] Prewarmed 4% paraformaldehyde in PBS was then added to each well to fix the cells before washing with PBS. Permeabilization and blocking was performed by incubating the slides with 1% BSA, 0.3% Triton X-100, 5% goat serum in PBS (PBS/B/0.3%T+5%GS) for 1 hr while shaking them at room temperature (RT). The slides were incubated with primary antibody solutions (mouse monoclonal anti-α-Tubulin [catalog number T9026; Sigma-Aldrich] and rabbit anti-CDK5RAP2 [catalog number A300-554A; Bethyl Laboratories]) at 4°C for 16 hr. […]

[2] = molecular target: T1, full-length, N-terminal, 6His-tagged human HSET (Homo sapiens, UniProt Q9BW19); assay: Differential scanning fluorimetry (DSF); assay type: binding; details: CW069 0.03125-1 mM in 4% DMSO
T1 sequence (Q9BW19 307-663 limits assumed): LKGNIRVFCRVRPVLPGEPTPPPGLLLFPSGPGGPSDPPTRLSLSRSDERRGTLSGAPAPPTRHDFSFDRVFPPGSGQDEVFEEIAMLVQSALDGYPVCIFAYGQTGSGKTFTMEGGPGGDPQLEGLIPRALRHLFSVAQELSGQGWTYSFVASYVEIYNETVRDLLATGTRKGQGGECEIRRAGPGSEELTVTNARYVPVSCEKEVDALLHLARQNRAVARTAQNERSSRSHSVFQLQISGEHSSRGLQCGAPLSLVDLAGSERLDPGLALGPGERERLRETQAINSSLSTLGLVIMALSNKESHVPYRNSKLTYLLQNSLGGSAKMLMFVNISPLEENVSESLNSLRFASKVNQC
Experimental: DSF is an inexpensive and rapid method for identifying ligands of purified proteins, and relies on the difference in protein unfolding temperature in the presence and absence of a small molecule ([Niesen et al., 2007]). The unfolding temperature is measured by the increase in fluorescence of a dye with particular affinity for the hydrophobic regions of proteins, which become exposed upon unfolding ([Niesen et al., 2007]). The difference in the transition midpoint, ΔTm, in the presence of a ligand is related to its binding affinity; however, this is not a direct measure of the binding coefficient and therefore was not used to calculate the affinity of CW069 for HSET ([Holdgate and Ward, 2005]).

N1E-115 cells [3] = assay: SRB growth-inhibition assay; assay type: cell-based; details: Mus musculus, N1E-115, 72 hr, 0.3 μM to 400 μM
From the text: We next assessed whether CW069 could selectively target proliferation in cancer cells. We used a combination of cell-growth-inhibition assays based on the Sulforhodamine-B (SRB) technique ([Vichai and Kirtikara, 2006]) and IncuCyte live-cell imaging. […] This further highlights that HSET inhibition, unlike that of KSP or CENP-E, provides a unique opportunity to selectively damage malignant cells without harming normal cells.
NHDF cells were obtained from PromoCell, and the N1E-115 and HeLa cells were obtained from ATCC/LGC Standards. The BT549, MCF-7 and MDA-MB-231 cells were kind gifts from the Caldas laboratory (CRUK Cambridge Institute) and were originally obtained from ATCC/LGC. All human cells were verified by STR genotyping and all tested negative for mycoplasma. Cells were cultured in Dulbecco’s modified Eagle’s medium (DMEM) supplemented with 10% fetal calf serum (FCS) at 37°C and 5% CO2. All compounds used in the Sulforhodamine B colorimetric (SRB) assay ([Vichai and Kirtikara, 2006]) were dissolved in DMSO and diluted in culture medium to a final concentration of 0.2% DMSO. For the SRB assay and live-cell imaging (using the IncuCyte Kinetic Live Cell Imaging System; Select Science), cells were seeded in 96-well plates at a density of 2,500 cells per well. […] Fluorescence was quantified using an Infinite 200 PRO plate-reader (Tecan) at a wavelength of 545 nm. […]

O=C(O)c1cc(I)ccc1NC(=O)[C@H](Cc1ccccc1)NCc1ccccc1 [CW069]
multipolar spindle formation (N1E-115 cells [1]; N1E-115, 100 μM): 98%
multipolar spindle formation (N1E-115 cells [1]; N1E-115, 200 μM): 86%
maximum HSET ΔTm [2]: −8.0 °C
IC50 (N1E-115 cells [3]): 86 ± 10 µM

Reference: paper PMC3898838, “Design, Synthesis, and Biological Evaluation of an Allosteric Inhibitor of HSET that Targets Cancer Cells with Supernumerary Centrosomes” (Chemistry & Biology, 2013)
